# Experimental data taken from US20040009601A1, “Methods for the regeneration and transformation of cotton” (The Regents of the University of California, priority 2002, published 2004).
# System: Maxxa hypocotyl explants
# Assay: Callus induction from Maxxa hypocotyl explants, orthogonal array L9 factorial experiment
# Assay type: cell-based, Gossypium hirsutum L. cv. Maxxa
# Settings: for Σ RG1: regeneration potential, mean Y of factor 1: factor 1 = 0 mg l-1 of the hormone; for Σ RG2: regeneration potential, mean Y of factor 2: factor 2 = 2,4-D 0.05, NAA 1.0, kinetin 0.5 mg l-1; for Σ RG3: regeneration potential, mean Y of factor 3: factor 3 = 2,4-D 0.1, NAA 2.0, kinetin 1.0 mg l-1; for Σ RG: mean of Σ RG1, Σ RG2 and Σ RG3: per hormone over the three factor levels
# Experimental: Hypocotyl explants ˜5 mm in length were excised from 7-10 day-old seedlings under sterile conditions. Explants were placed in a 25×100-mm petri dish (one seedling per plate) containing ˜30 ml of callus induction medium, sealed with parafilm and cultured at 28±2° C. under a combination of cool white and full spectrum fluorescent lights with a 16-hour light/8-hour dark cycle for 3 to 4 weeks to induce callus formation.
# Initial experiments were conducted using MS2NK (2 mg 1^−1 NAA substituted for 2,4-D in MS2DK, Trolinder and Goodin, 1987), a medium used for callus induction in the elite regenerable Coker 312 line. To optimize a callus induction medium for Maxxa, a factorial experiment using an Orthogonal Array L9 (3^4) experimental design ((Taguchi, Introduction to Quality Engineering, Tokyo, Japan (1986)) was performed to determine the best hormonal regime for induction of callus capable of undergoing somatic embryogenesis. The optimal combination of NAA, 2,4-D and kinetin was evaluated at varying concentrations (Table 1) in basal MS medium (Murashige and Skoog, Physiol. Plant. 15:473-497 (1962)) in four independent experiments. In each experiment, 18 hypocotyl explants were excised from 24-48 individual seedlings to provide two explants per seedling per treatment. Each replicated treatment was evaluated for the ability to proliferate a friable callus that was yellowish-green to creamy in color, granular in texture, and readily dispersed in liquid medium. Calli characteristics were scored at 3 weeks and 6 weeks for color, texture, dispersiveness in liquid media, and cell/callus size as the parameters for evaluation. Based on these criteria, the optimized Maxxa callus induction medium (MCIM) selected for cotton regeneration is comprised of MS salts (GibcoBRL Cat no. 11117-074) supplemented with 100 mg 1^−1 myo-inositol, B5 vitamins (10 mg 1^−1 thiamine-HCl; 1 mg 1^−1 nicotinic acid; 1 mg 1^−1 pyridoxine), 0.75 g 1^−1 MgCl2, 30 g 1^−1 glucose, 2.0 mg 1^−1 NAA and 0.05 mg 1^−1 2,4-D. The medium was adjusted to pH 5.8 before adding agar (2.5 g 1^−1 Phytagel).
# A factorial experiment using an orthogonal array L9 (3^4) design was conducted to determine optimal conditions for callus induction and somatic embryogenesis by Maxxa hypocotyl explants. Different hormonal combinations of auxin (NAA and/or 2,4-D) and cytokinin (kinetin) were tested at varying concentrations (Table 1) in basal MS medium (Murashige and Skoog, supra). Each of the 9 replicated treatments was scored for callus initiation efficiency (Y) based on two components—(I) the mean of the number of explants producing good quality callus and (II) embryogenic potential, that is, the developmental transition of undifferentiated callus to somatic embryogenesis—expressed as a percent (Table 1). The production and proliferation of callus considered of “good quality” was based on four criteria: color, texture, dispersiveness in liquid media, and size/shape of undifferentiated cells. Within each category, each callus was scored with a rating of 1 to 4 based on the following parameters: Color—dark green (4) to parrot-green/creamy (1), Texture—hard and compact (4) to soft and friable (1), Dispersiveness—intact (4) to readily dispersed cell clumps (1) in liquid medium, Size/Shape—small cells/compact callus (<1 mm) (4) to nodular, “grainy” callus (>2 mm) (1). Good quality callus received ratings of “1” in each category. The embryogenic potential (II) of Y represents the ability of undifferentiated parenchymal cells to organize into meristematic centers and successfully undergo somatic embryogenesis. The factors considered in determining II/Y included the formation of organized cell clusters in embryogenic cultures, the types of embryos produced (globular, heart-shaped, torpedo), and the color of the somatic embryo (white/transparent vs. yellow/opaque). […]
Structure (SMILES),"Importance of the hormone for callus induction from Maxxa hypocotyls, judged from Σ RG","Σ RG1: regeneration potential, mean Y of factor 1","Σ RG2: regeneration potential, mean Y of factor 2","Σ RG3: regeneration potential, mean Y of factor 3","Σ RG: mean of Σ RG1, Σ RG2 and Σ RG3"
"O=C(O)COc1ccc(Cl)cc1Cl [2,4-D, 2,4-dichlorophenoxyacetic acid]",essential for callus induction,5.77%,61.87%,77.07%,71.30%
"c1coc(CNc2ncnc3[nH]cnc23)c1 [Kinetin, kinetin]",not critical,63.27%,32.78%,46.65%,32.49%
